Measurements as given in PubChem BioAssay (NCI).
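Cultured in 96-well plates, cells were exposed to test compound for 48 hours across five concentrations. TGI is the concentration that stops growth completely.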

Legend:
Experiment in all cases: DTP human tumour cell line panel, 48 h
M14 melanoma = tested on: M14 melanoma
HCT-116 colon = tested on: HCT-116 colon
HOP-62 NSCLC = tested on: HOP-62 NSCLC
SF-295 CNS = tested on: SF-295 CNS
HT29 colon = tested on: HT29 colon
COLO 205 colon = tested on: COLO 205 colon
RPMI-8226 leukemia = tested on: RPMI-8226 leukemia
OVCAR-4 ovarian = tested on: OVCAR-4 ovarian
NCI-H522 lung = tested on: NCI-H522 lung
EKVX NSCLC = tested on: EKVX NSCLC

SMILES | TGI (M14 melanoma) [µM] | TGI (HCT-116 colon) [µM] | TGI (HOP-62 NSCLC) [µM] | TGI (SF-295 CNS) [µM] | TGI (HT29 colon) [µM] | TGI (COLO 205 colon) [µM] | TGI (RPMI-8226 leukemia) [µM] | TGI (OVCAR-4 ovarian) [µM] | TGI (NCI-H522 lung) [µM] | TGI (EKVX NSCLC) [µM]
CN1CC2CN(Cc3ccccc3)CCN2c2cccnc21 (stereo not given) | > 100 | 37.7 | > 100 | > 100 | 87.9 | > 100 | > 100 | > 100 | > 100 | > 100
O=C(N/N=C/c1ccccc1)c1cccc2nc3ccccc3nc12 | > 100 | > 100 | > 45.7 | > 86.5 | > 100 | 18 | > 100 | > 100 | > 100 | > 100
Nc1nc(-c2ccco2)cc(-c2ccc(CO)o2)n1 | > 100 | > 100 | > 100 | > 100 | > 100 | > 100 | > 100 | > 100 | > 100 | > 100
C#CC1(O)CCCCCCCCC2(CCCCCCCC1)OCCO2 | 33.9 | 30.4 | 44.5 | 34.7 | 35.4 | 33.2 | 22 | 19.5 | 6.42 | 32.6
